According to patent US11844779B2, “PKC-Delta-I inhibitor formulations and uses thereof” (University of South Florida, priority 2016, dated 2023):

Experiments:
PKCδI [1] = target: T1, PKCδI (Mus musculus, UniProt P28867); experiment: Western blot on mature adipocytes (inhibitors added day 6 of differentiation); type: cell-based; conditions: for phosphorylation of myelin basic protein (PKCδI substrate) / cleavage and release of the PKCδI catalytic domain: mature adipocytes, inhibitors added day 6 of differentiation, 24 h; for cleavage and release of the PKCδI catalytic domain: C-terminal PKCδ antibody
T1 construct: endogenous in cells; host or cells: 3T3L1 (differentiating pre-adipocytes, day 1; mature adipocytes, day 6)
T1 sequence (P28867 whole entry, the tested form may be a part): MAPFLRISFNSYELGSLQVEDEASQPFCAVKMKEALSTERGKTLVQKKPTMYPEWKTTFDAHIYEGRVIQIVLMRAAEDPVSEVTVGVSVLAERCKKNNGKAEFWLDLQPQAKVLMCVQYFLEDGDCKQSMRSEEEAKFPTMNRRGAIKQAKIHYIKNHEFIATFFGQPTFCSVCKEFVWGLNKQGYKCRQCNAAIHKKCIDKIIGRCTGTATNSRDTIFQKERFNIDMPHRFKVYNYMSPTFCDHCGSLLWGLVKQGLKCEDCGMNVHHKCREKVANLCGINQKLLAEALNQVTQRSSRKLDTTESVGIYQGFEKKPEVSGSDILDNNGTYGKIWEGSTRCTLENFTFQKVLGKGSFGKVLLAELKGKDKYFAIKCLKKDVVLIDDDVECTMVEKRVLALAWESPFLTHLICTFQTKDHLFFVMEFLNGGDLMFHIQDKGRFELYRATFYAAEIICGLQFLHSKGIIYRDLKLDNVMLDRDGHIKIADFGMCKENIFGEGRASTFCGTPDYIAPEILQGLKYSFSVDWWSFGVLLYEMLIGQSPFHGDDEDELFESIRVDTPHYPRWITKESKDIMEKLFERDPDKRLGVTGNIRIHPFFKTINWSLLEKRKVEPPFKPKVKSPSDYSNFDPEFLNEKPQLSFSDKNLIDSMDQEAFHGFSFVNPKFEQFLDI
Procedure: Next, compounds 5139627, 5320091, 72950115, 28578828, 61397826 and 43844983 were tested on mature adipocytes. The inhibitors were added on day 6 of differentiation when the adipocytes are lipid laden. After 24 h, the cells were harvested and western blot analysis was performed on whole cell lysates.

PKCδVIII = target: T2, PKCδVIII (Homo sapiens, UniProt Q05655); experiment: Western blot on adipocytes from obese donor, PKCδVIII; type: cell-based; conditions: about 10-100 nM, about 24 h
T2 construct: adipocytes from the obese donor were treated with about 10-100 nM NP627; endogenous in cells; host or cells: primary human adipocytes from visceral adipose tissue of an obese donor
T2 sequence (Q05655 1-707 isoform Q05655-2): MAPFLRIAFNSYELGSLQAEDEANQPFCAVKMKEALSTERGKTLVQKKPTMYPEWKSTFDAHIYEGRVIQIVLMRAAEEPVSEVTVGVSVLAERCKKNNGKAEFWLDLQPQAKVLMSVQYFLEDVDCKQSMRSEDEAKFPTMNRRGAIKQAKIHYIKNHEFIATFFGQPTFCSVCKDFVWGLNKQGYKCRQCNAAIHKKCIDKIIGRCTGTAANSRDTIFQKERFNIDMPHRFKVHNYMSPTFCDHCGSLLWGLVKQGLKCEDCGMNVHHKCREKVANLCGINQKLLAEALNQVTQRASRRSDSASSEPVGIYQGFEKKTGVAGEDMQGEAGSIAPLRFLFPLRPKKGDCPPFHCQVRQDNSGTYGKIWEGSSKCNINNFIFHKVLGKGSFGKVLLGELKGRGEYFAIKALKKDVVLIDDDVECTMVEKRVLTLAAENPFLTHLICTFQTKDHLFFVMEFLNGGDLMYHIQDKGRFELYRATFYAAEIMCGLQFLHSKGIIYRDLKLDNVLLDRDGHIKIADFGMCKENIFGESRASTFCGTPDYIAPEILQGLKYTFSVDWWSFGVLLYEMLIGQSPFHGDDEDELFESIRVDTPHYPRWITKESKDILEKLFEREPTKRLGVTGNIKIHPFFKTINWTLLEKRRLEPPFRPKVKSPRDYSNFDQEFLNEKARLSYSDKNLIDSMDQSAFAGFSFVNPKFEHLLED
Source text: (§1) The C-terminal fragment of PKCδI phosphorylates its substrates that mediate expression of pro-apoptotic proteins. For a functional read-out, an assay was designed to measure: (1) Bcl-xL switching to its pro-apoptotic variant Bcl-xS and (2) Caspase9b switching to its pro-apoptotic variant caspase 9a. Briefly, adipocytes were freshly isolated from human visceral adipose tissue of lean and obese donors (IRB #20295; lean BMI 22.1 and 23; obese BMI 43.7 and 44.3; non-diabetic, nonsmokers, non-cancer).
(§2) Additionally, adipocytes from the obese donor were treated with about 10-100 nM NP627 (compound 513627) for about 24 h (n=3). Expression of PKCδI_F, PKCδI_C, PKCδVIII, and β-Actin (control) were analyzed using western blotting.

PKCδI [2] = target: T3, PKCδI (Homo sapiens, UniProt Q05655); experiment: In vitro kinase assay with recombinant PKCδI and SC35 as substrate; type: biochemical; conditions: 10 nM, 30 min incubation prior to assay, phosphatidyl serine and ATP
T3 sequence (Q05655 whole entry): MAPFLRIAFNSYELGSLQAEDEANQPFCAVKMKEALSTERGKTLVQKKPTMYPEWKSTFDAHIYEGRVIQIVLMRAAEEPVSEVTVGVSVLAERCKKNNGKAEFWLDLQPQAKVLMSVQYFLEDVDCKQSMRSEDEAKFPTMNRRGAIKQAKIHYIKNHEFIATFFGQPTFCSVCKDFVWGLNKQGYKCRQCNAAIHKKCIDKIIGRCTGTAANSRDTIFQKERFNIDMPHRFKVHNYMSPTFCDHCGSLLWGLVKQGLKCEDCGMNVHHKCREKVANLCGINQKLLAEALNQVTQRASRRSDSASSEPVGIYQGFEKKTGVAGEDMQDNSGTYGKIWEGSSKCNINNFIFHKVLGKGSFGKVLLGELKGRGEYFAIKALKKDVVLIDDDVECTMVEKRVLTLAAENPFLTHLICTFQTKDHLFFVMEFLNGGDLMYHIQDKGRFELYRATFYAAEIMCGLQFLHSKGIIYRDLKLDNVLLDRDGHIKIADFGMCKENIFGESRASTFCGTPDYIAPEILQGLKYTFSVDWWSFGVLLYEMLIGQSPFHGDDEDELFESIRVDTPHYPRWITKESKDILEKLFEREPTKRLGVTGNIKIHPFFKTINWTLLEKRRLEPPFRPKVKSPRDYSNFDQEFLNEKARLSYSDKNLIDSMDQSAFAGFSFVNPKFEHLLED
Procedure: Next, in vitro kinase assays were performed with recombinant proteins PKCδI and SC35 (as substrate) in a kinase buffer containing phosphatidyl serine and ATP; with and without 10 nM 5139627, 28578828 (30 min incubation prior to assay).

PKCδI [3] = target: T3, PKCδI; experiment: PKC kinase activity kit, colorimetric assay (ENZO); type: biochemical; conditions: run in triplicate
Procedure: (§3) Briefly, a Protein Kinase C (PKC) kinase activity kit was used and a colorimetric assay (ENZO; run in triplicate) was performed. Relative kinase activity was calculated as (average absorbance of PKC isozyme−Average absorbance of blank)/quantity of pure kinase used per assay.

PKCδI [4] = target: T3, PKCδI; experiment: Western blot on adipocytes from obese donor, PKCδI cleavage; type: cell-based; design: adipocytes from the obese donor were treated with about 10-100 nM NP627; endogenous in cells; host or cells: primary human adipocytes from visceral adipose tissue of an obese donor; conditions: about 10-100 nM, about 24 h
Source text: as §1, §2

PKCδI [5] = target: T1, PKCδI; experiment: Western blot on differentiating 3T3L1 cells (inhibitors added day 1 of differentiation); type: cell-based; conditions: 3T3L1, inhibitors added day 1 of differentiation, 24 h; for cleavage and release of the PKCδI catalytic domain: C-terminal PKCδ antibody
Procedure: The compounds identified from the docking modeling were tested for their ability to inhibit PKCδI. 3T3L1 cells were plated in 60 mm dishes and differentiated. PKCδI regulates cell cycle during differentiation of pre-adipocytes to adipocytes. The inhibitors were added on day 1 of differentiation during mitotic clonal expansion when PKCδI expression is high (18). After 24 h, the cells were harvested and western blot analysis was performed on whole cell lysates.

other PKCs = experiment: PKC kinase activity kit, colorimetric assay (ENZO), other PKC isozymes; type: biochemical; conditions: run in triplicate
Procedure: as §3

obese adipocytes = experiment: WST-1 assay for cell viability; type: cell-based; conditions: 10 nM
Procedure: A WST-1 assay performed using obese adipocytes treated with 513627 to evaluate toxicity of compound 513627. Briefly, obese adipocytes were treated with 10 nM of compound 513627 and a WST-1 assay for cell viability was performed. FIG. 5 represents data from four experiments.

Bxl-xS and caspase9a = experiment: PCR based expression of pro-apoptotic variants in adipocytes from obese donor; type: cell-based, human; conditions: about 10 nM, about 24 h
Source text: as §1
Additionally, adipocytes from the obese donor were treated with about 10 nM of NP627 for about 24 h (n=3). Expression of Bxl-xL, Bxl-xS, caspase9a, andβ-actin (control) were analyzed using a PCR based technique (n=3).

[6] = both pre-adipocytes and mature adipocytes

Structure (SMILES)	phosphorylation of myelin basic protein (PKCδI substrate) (PKCδI [1])	cleavage and release of the PKCδI catalytic domain (PKCδI [1])	PKCδVIII (alternatively spliced variant) (PKCδVIII)	PKCδI activity (PKCδI [2])	specificity for PKCδI (relative kinase activity) (PKCδI [3])	cleavage of PKCδI (PKCδI [4])	cleavage and release of the PKCδI catalytic domain (PKCδI [5])	other PKC isozyme activities (other PKCs)	phosphorylation of myelin basic protein (PKCδI substrate) (PKCδI [5])	inhibition of PKCδI cleavage (PKCδI [1]; [6])	inhibition of phosphorylation of MBP (PKCδI [1]; [6])	cellular toxicity (cell viability) (obese adipocytes)	expression of Bxl-xS (Bxl-xS and caspase9a)	expression of caspase9a (Bxl-xS and caspase9a)
CC(C)(O)C(=O)C=Cc1ccc2c(c1)OCO2 [compound 5320091, 1-(1,3-benzodioxol-5-yl)-4-hydroxy-4-methyl-1-penten-3-one]	decreased phosphorylation	inhibited the cleavage and release	–	–	–	–	inhibit the cleavage and release	–	decreased phosphorylation	–	–	–	–	–
OCCNc1cc(-c2cc(CO)ccn2)c2cc[nH]c2n1 [compound 28578828, 2-({4-[4-(hydroxymethyl)pyridin-2-yl]-1H-pyrrolo[2,3-b]pyridin-6-yl}amino)ethanol]	decreased phosphorylation	inhibited the cleavage and release	–	specifically inhibit PKCδI activity	–	–	inhibit the cleavage and release	–	decreased phosphorylation	–	–	–	–	–
CN(Cc1cnccn1)C(=O)c1cccc(C#CC(C)(C)O)c1 [compound 43844983, 3-(3-hydroxy-3-methylbut-1-yn-1-yl)-N-methyl-N-(pyrazin-2-ylmethyl)benzamide]	decreased phosphorylation	inhibited the cleavage and release	–	–	–	–	inhibit the cleavage and release	–	decreased phosphorylation	completely inhibit	completely inhibit	–	–	–
Cc1nc2c(c(N(C)C)n1)CCN(C(=O)[C@@H]1C[C@@H](O)CN1)C2 [compound 61397826, (3R,5S)-5-{[4-(dimethylamino)-2-methyl-5,8-dihydropyrido[3,4-d]pyrimidin-7(6H)-yl]carbonyl}-3-pyrrolidinol]	decreased phosphorylation	inhibited the cleavage and release	–	–	–	–	inhibit the cleavage and release	–	decreased phosphorylation	–	–	–	–	–

Continued, in another order:

phosphorylation of myelin basic protein (PKCδI substrate) (PKCδI [1])	cleavage and release of the PKCδI catalytic domain (PKCδI [1])	PKCδVIII (alternatively spliced variant) (PKCδVIII)	PKCδI activity (PKCδI [2])	specificity for PKCδI (relative kinase activity) (PKCδI [3])	cleavage of PKCδI (PKCδI [4])	cleavage and release of the PKCδI catalytic domain (PKCδI [5])	other PKC isozyme activities (other PKCs)	phosphorylation of myelin basic protein (PKCδI substrate) (PKCδI [5])	inhibition of PKCδI cleavage (PKCδI [1]; [6])	inhibition of phosphorylation of MBP (PKCδI [1]; [6])	Structure (SMILES)	cellular toxicity (cell viability) (obese adipocytes)	expression of Bxl-xS (Bxl-xS and caspase9a)	expression of caspase9a (Bxl-xS and caspase9a)
decreased phosphorylation	inhibited the cleavage and release	not inhibited	specifically inhibit PKCδI activity	specificity for PKCδI	specifically inhibits cleavage of PKCδI	inhibit the cleavage and release	not inhibited	–	–	–	N=C(CCN1C(=O)c2ccccc2C1=O)NNC(=O)CCCC(=O)NNC(=N)CCN1C(=O)c2ccccc2C1=O [compound 5139627, N′~1~,N′~5~-bis[3-(1,3-dioxo-1,3-dihydro-2H-isoindo1-2-yl)propanimidoyl]pentanedihydrazide]	did not appear to cause cellular toxicity	decrease expression	decrease expression
decreased phosphorylation	inhibited the cleavage and release	–	–	–	–	inhibit the cleavage and release	–	decreased phosphorylation	–	–	CCN(C/C=C/c1ccccc1)C(=O)CCc1nc2ccccc2[nH]1 [compound 72950115, 3-(1H-benzimidazol-2-yl)-N-ethyl-N-[(2E)-3-phenylprop-2-en-1-yl]propanamide]	–	–	–
